In patent US10751381B2, “Composition for preventing, relieving or treating colitis, containing complex extracts” (UNIVERSITY-INDUSTRY COOPERATION GROUP OF KYUNG HEE …, priority 2013, dated 2020):

Columns and labels:
Assay type in all cases: in vivo, mice (C57BL/6)
[1] = system: model animals with acute colitis induced by TNBS; assay: Acute colitis induced by TNBS in mice, secondary experiment (extract-based and fraction-based): weight change, colon length, macroscopic score; details: TNBS-treated mice, percentage to normal group
Procedure: All the mice were bred under the controlled environmental conditions of 50±10% of humidity at a temperature of 20° C. to 22° C., and the lighting was provided by repeatedly turning on for 12 hours followed by turning off for 12 hours. A feed for a standard experiment (Samyang, Korea) was used as a feed, and ad libitum access to water was allowed. In all experiments, each group consisted of 6 mice. […] Meanwhile, for the normal group, 0.1 mL of normal saline solution was orally administered. Subsequently, from the following day, the sample dissolved in normal saline solution was orally administered at a predetermined volume once daily for 3 days. On the following day after completing the sample administration, the experimental animals were suffocated to death with carbon dioxide, and the colon from the appendix to the region immediately before the anus was removed from the colon region. In this case, the experiments, where an ethanol extract of Anemarrhena asphodeloides Bunge, an ethanol extract of Coptis chinensis, a combined extract of the ethanol extract of Anemarrhena asphodeloides Bunge and the ethanol extract of Coptis chinensis, and a combined extract of a water extract of Anemarrhena asphodeloides Bunge and a water extract of Coptis chinensis were used as drug samples (hereinafter, “extract-based experiment”), and the experiments, where a butanol-soluble fraction of the ethanol extract of Anemarrhena asphodeloides Bunge, a butanol-soluble fraction of the ethanol extract of Coptis chinensis, and a combined extract of the butanol-soluble fraction of the ethanol extract of Anemarrhena asphodeloides Bunge and the butanol-soluble fraction of the ethanol extract of Coptis chinensis were used as drug samples (hereinafter, “fraction-based experiment”) were separately performed with time intervals, respectively. Considering the characteristics of animal experiments, it is reasonable that the effects of the drug samples on preventing or treating colitis be evaluated within each of the experiments and that the normal group supplied with saline solution instead of a specific drug sample, for the experimental animals not treated with TNBS, be used as a standard. The sample administration to the model animals with colitis induced by TNBS was stopped, and on the following day, the weight of the experimental animals was measured were and then compared with their initial weight to calculate the change in the amount of weight. The scores on the removed colons were estimated by observing the appearances and the length of the colons according to the criteria (Hollenbach et al., the criteria on the levels of colon in 2005) listed in Table 3. In this case, as a positive control group, the group administered with Mesalazine® (Sigma) was used. Additionally, a portion of the content in the colon was collected to analyze the intestinal microorganisms, and then stored in a freezer maintained at −80° C. From the tissues of colon, the content in the colon was completely removed and then the tissues of colon were washed with normal saline solution.

[2] = system: Myeloperoxidase (MPO); assay: MPO activity in colon tissue (ELISA kit), TNBS acute colitis, secondary experiment; details: TNBS-treated mice, percentage to normal group
Procedure: Among the experimental groups, one group was set as a normal group, and the experimental animals in other groups were induced with acute colitis by 2,4,6-trinitrobenzenesulfonic acid (TNBS). In detail, after lightly anesthetizing the experimental animals with ether, 0.1 mL of the solution prepared by mixing 2.5 g of 2,4,6-Trinitrobenzene sulfonic acid (NBS) solution with 50% ethanol was injected into the colon through the anus using a syringe having 1 mL volume and an oval point, respectively; the syringe was vertically picked up, and then, maintained for 30 seconds to induce inflammation. Meanwhile, for the normal group, 0.1 mL of normal saline solution was orally administered. Subsequently, from the following day, the sample dissolved in normal saline solution was orally administered at a predetermined volume once daily for 3 days. On the following day after completing the sample administration, the experimental animals were suffocated to death with carbon dioxide, and the colon from the appendix to the region immediately before the anus was removed from the colon region. In this case, the experiments, where an ethanol extract of Anemarrhena asphodeloides Bunge, an ethanol extract of Coptis chinensis, a combined extract of the ethanol extract of Anemarrhena asphodeloides Bunge and the ethanol extract of Coptis chinensis, and a combined extract of a water extract of Anemarrhena asphodeloides Bunge and a water extract of Coptis chinensis were used as drug samples (hereinafter, “extract-based experiment”), and the experiments, where a butanol-soluble fraction of the ethanol extract of Anemarrhena asphodeloides Bunge, a butanol-soluble fraction of the ethanol extract of Coptis chinensis, and a combined extract of the butanol-soluble fraction of the ethanol extract of Anemarrhena asphodeloides Bunge and the butanol-soluble fraction of the ethanol extract of Coptis chinensis were used as drug samples (hereinafter, “fraction-based experiment”) were separately performed with time intervals, respectively. Considering the characteristics of animal experiments, it is reasonable that the effects of the drug samples on preventing or treating colitis be evaluated within each of the experiments and that the normal group supplied with saline solution instead of a specific drug sample, for the experimental animals not treated with TNBS, be used as a standard.
100 mg of colon tissues were homogenized after adding 200 μL of lysis buffer thereto. The homogenized colon tissues were centrifuged at 4° C. at a rate of 13000 rpm for 15 minutes, the supernatant therefrom was recovered, and the MPO activity was measured using a mouse MPO assay ELISA kit (Hbt HK210, USA). 100 μL of the supernatant was added into a 96-well plate and reacted at room temperature for 1 hour. Upon completion of the reaction, the plate was emptied by overturning, repeatedly washed three times with 200 μL of washing buffer, added with 100 μL of diluted tracer, and then the reaction was allowed to perform at room temperature for 1 hour. Upon completion of the reaction, the plate was emptied by overturning, and each well of the plate was washed using 200 μL of washing buffer. After repeatedly performing the washing process three times using 200 μL of washing buffer, 100 μL of diluted streptavidin-peroxidase conjugate was added thereto, and the reaction was allowed to perform at room temperature for 1 hour. Upon completion of the reaction, the plate was emptied by overturning, and each well of the plate was washed with 200 μL of washing buffer. After repeatedly washing three times using 200 μL of washing buffer, 100 μL of TMB substrate solution was added thereto, the plate was wrapped with an aluminum foil to block out the light, and the reaction was performed at room temperature for 30 minutes. Subsequently, 100 μL of a stop solution was added to terminate the reaction, and the absorbance was measured at 450 nm using an ELISA reader.

[3] = system: IL-1β; assay: IL-1β expression in colon tissue (ELISA), TNBS acute colitis, primary experiment; details: TNBS-treated mice, 10 mg/kg orally once daily for 3 days, percentage to normal group
Procedure: (§1) Among the experimental groups, one group was set as a normal group, and the experimental animals in other groups were induced with acute colitis by 2,4,6-trinitrobenzenesulfonic acid (TNBS). In detail, after lightly anesthetizing the experimental animals with ether, 0.1 mL of the solution prepared by mixing 2.5 g of 2,4,6-Trinitrobenzene sulfonic acid (NBS) solution with 50% ethanol was injected into the colon through the anus using a syringe having 1 mL volume and an oval point, respectively; the syringe was vertically picked up, and then, maintained for 30 seconds to induce inflammation. Meanwhile, for the normal group, 0.1 mL of normal saline solution was orally administered. Subsequently, from the following day, the sample dissolved in normal saline solution was orally administered at a predetermined volume once daily for 3 days. […] In this case, as a drug sample, the experiments using the butanol-soluble fraction of the Anemarrhena asphodeloides Bunge extract, mangiferin, and a combined extract were separately performed with time intervals, respectively, and the effects of the drug samples on preventing or treating colitis were reasonably analyzed based on the group supplied with normal saline solution instead of a specific drug in the model animals not treated with TNBS, for each of the experiments. […]

[4] = system: IL-6; assay: IL-6 expression in colon tissue (ELISA), TNBS acute colitis, primary experiment; details: TNBS-treated mice, 10 mg/kg orally once daily for 3 days, percentage to normal group
Procedure: as §1

[5] = system: TNF-α; assay: TNF-α expression in colon tissue (ELISA), TNBS acute colitis, primary experiment; details: TNBS-treated mice, 10 mg/kg orally once daily for 3 days, percentage to normal group
Procedure: as §1

[6] = system: Myeloperoxidase (MPO); assay: MPO activity in colon tissue (ELISA kit), TNBS acute colitis, primary experiment; details: TNBS-treated mice, 10 mg/kg orally once daily for 3 days, percentage to normal group
Procedure: Among the experimental groups, one group was set as a normal group, and the experimental animals in other groups were induced with acute colitis by 2,4,6-trinitrobenzenesulfonic acid (TNBS). In detail, after lightly anesthetizing the experimental animals with ether, 0.1 mL of the solution prepared by mixing 2.5 g of 2,4,6-Trinitrobenzene sulfonic acid (NBS) solution with 50% ethanol was injected into the colon through the anus using a syringe having 1 mL volume and an oval point, respectively; the syringe was vertically picked up, and then, maintained for 30 seconds to induce inflammation. Meanwhile, for the normal group, 0.1 mL of normal saline solution was orally administered. […] In this case, as a drug sample, the experiments using the butanol-soluble fraction of the Anemarrhena asphodeloides Bunge extract, mangiferin, and a combined extract were separately performed with time intervals, respectively, and the effects of the drug samples on preventing or treating colitis were reasonably analyzed based on the group supplied with normal saline solution instead of a specific drug in the model animals not treated with TNBS, for each of the experiments.
100 mg of colon tissues were homogenized after adding 200 μL of lysis buffer thereto. […] Subsequently, 100 μL of a stop solution was added to terminate the reaction, and the absorbance was measured at 450 nm using an ELISA reader.

[7] = system: IL-10; assay: IL-10 expression in colon tissue (ELISA), TNBS acute colitis, primary experiment; details: TNBS-treated mice, 10 mg/kg orally once daily for 3 days, percentage to normal group
Procedure: as §1

[8] = system: model animals with acute colitis induced by TNBS; assay: Acute colitis induced by TNBS in mice, primary experiment: weight change, colon appearance score, colon length; details: TNBS-treated mice, 10 mg/kg orally once daily for 3 days, percentage to normal group (saline, no TNBS)
Procedure: All the mice were bred under the controlled environmental conditions of 50±10% of humidity at a temperature of 20° C. to 22° C., and the lighting was provided by repeatedly turning on for 12 hours followed by turning off for 12 hours. A feed for a standard experiment (Samyang, Korea) was used as a feed, and ad libitum access to water was allowed. In all experiments, each group consisted of 6 mice. […] Meanwhile, for the normal group, 0.1 mL of normal saline solution was orally administered. Subsequently, from the following day, the sample dissolved in normal saline solution was orally administered at a predetermined volume once daily for 3 days. On the following day after completing the sample administration, the experimental animals were suffocated to death with carbon dioxide, and the colon from the appendix to the region immediately before the anus was removed from the colon region. In this case, as a drug sample, the experiments using the butanol-soluble fraction of the Anemarrhena asphodeloides Bunge extract, mangiferin, and a combined extract were separately performed with time intervals, respectively, and the effects of the drug samples on preventing or treating colitis were reasonably analyzed based on the group supplied with normal saline solution instead of a specific drug in the model animals not treated with TNBS, for each of the experiments. The sample administration to the model animals with colitis induced by TNBS was stopped, and on the following day, the weight of the experimental animals was measured, and the measured weight was compared with the initial weight to calculate the amount of change in weight. The scores about the removed colons were estimated by observing the appearances and the length of the colons according to the following criteria (Hollenbach, et al., the criteria about the colitis level in 2005) as listed in Table 1. In this case, as a positive control group, the group administered with Mesalazine® (Sigma) was used. […]

[9] = extract-based experiment, 10 mg/kg orally once daily for 3 days
[10] = extract-based experiment, 20 mg/kg orally once daily for 3 days
[11] = extract-based experiment, 50 mg/kg orally once daily for 3 days
[12] = fraction-based experiment, 10 mg/kg orally once daily for 3 days
[13] = fraction-based experiment, 20 mg/kg orally once daily for 3 days
[14] = fraction-based experiment, 50 mg/kg orally once daily for 3 days

Nc1ccc(O)c(C(=O)O)c1 [Mesalazine ®, Mesalazine]
Body weight [1, 9]: 59.46% | Colon length [1, 9]: 89.06% | Macroscopic score [1, 9]: 420% | Body weight [1, 10]: 78.38% | Colon length [1, 10]: 90.63% | Macroscopic score [1, 10]: 420% | Body weight [1, 11]: 75.68% | Colon length [1, 11]: 90.63% | Macroscopic score [1, 11]: 450% | Body weight [1, 12]: 59.46% | Colon length [1, 12]: 90.48% | Macroscopic score [1, 12]: 500% | Body weight [1, 13]: 78.38% | Colon length [1, 13]: 92.06% | Macroscopic score [1, 13]: 500% | Body weight [1, 14]: 75.68% | Colon length [1, 14]: 92.06% | Macroscopic score [1, 14]: 600% | MPO activity [2, 9]: 360% | MPO activity [2, 10]: 360% | MPO activity [2, 11]: 390% | MPO activity [2, 12]: 300% | MPO activity [2, 13]: 300% | MPO activity [2, 14]: 317% | IL-1β [3]: 618.4% | IL-6 [4]: 190.0% | TNF-α [5]: 304.1% | MPO activity [6]: 1111.6% | IL-10 [7]: 53.1% | Body weight [8]: 93.2% | Colon length [8]: 89.9% | Macroscopic score [8]: 550.5%
